According to PMC10111423, “Antimalarial Imidazopyridines Incorporating an Intramolecular Hydrogen Bonding Motif: Medicinal Chemistry and Mechanistic Studies” (ACS Infectious Diseases, 2023):
Values after ≈ are worked out from the molar mass of the structure shown.

Legend:
[1] = test system: chloroquine-sensitive (NF54) strain of P. falciparum; assay: In vitro asexual blood-stage antiplasmodium pLDH assay, NF54 strain; assay type: cell-based; details: Plasmodium falciparum, NF54; pLDH, 72 h, n ≥ 3; read-out: In vitro antiplasmodium activity IC50 PfNF54 strain
Method: (§1) Compounds were screened against multi-drug-resistant (K1) and sensitive (NF54) strains of P. falciparum in vitro using a parasite lactate dehydrogenase assay (pLDH) (the method is described fully in the Supporting Information). […]
(§2) In vitro Asexual Blood Stage Antiplasmodium Assay
(§3) Parasites were cultured as per the method of Trager and Jensen,1 with modifications. IC50 values were determined using parasite lactate dehydrogenase as a marker for survival (Makler […]
(§4) et al, 1993). The test samples were prepared to a 10 mmol/L stock solution in 100% DMSO.
(§5) Samples were tested as a suspension if not completely dissolved. Further dilutions to the desired starting concentration were freshly prepared in growth media on each occasion of the experiment. The standard antimalarial drugs chloroquine (CQ) and artesunate (Arts) were used as the reference drug in all experiments. A full dose-response was performed for all compounds in a 96-well plate to determine the concentration inhibiting 50% of parasite growth (IC50– value). Test samples were tested at a starting concentration of 6mmol/L, which was then serially diluted 2-fold in growth medium to generate the tested concentration range. The same dilution technique was used for all samples. CQ and Arts were tested from a starting concentration of 1µg/mL. The highest concentration of solvent to which the parasites were exposed was <0.1% and has no measurable effect on the parasite viability (data not shown).
(§6) The assay plate was incubated at 37 °C for 72h in a sealed gas chamber under 3% O2 and 4% CO2 with the balance being N2. After 72h, the wells in the assay plate were gently resuspended, and 15µL from each well was transferred to a duplicate plate containing 100µL of Malstat reagent and 25µL of nitroblue tetrazolium solution in each well. Plates were left to develop for 20 minutes in the dark and then absorbance of each well was quantified using a spectrophotometer at 620nm wavelength.
(§7) The remaining population of parasites at each concentration of the test compound was determined by comparing the absorbance of each well to the absorbance of a well containing […]
(§8) the drug-free control. […]
(§9) The initial 100 µg/mL solution is serially diluted 10-

[2] = test system: multidrug-resistant (K1) strain of P. falciparum; assay: In vitro asexual blood-stage antiplasmodium pLDH assay, K1 strain; assay type: cell-based; details: Plasmodium falciparum, 72 h, n ≥ 3, read-out: In vitro antiplasmodium activity IC50 PfK1 strain
Method: as §1, §2, §3, §4, §5, §6, §7, §8, §9

[3] = In vitro cytotoxicity MTT assay; assay type: cell-based, Chinese hamster; details: Chinese hamster, Chinese hamster ovarian (CHO) cells; MTT assay
Method: (§10) In vitro cytotoxicity was performed on the Chinese Hamster Ovarian cell line by measuring cellular growth and survival calorimetrically through the MTT assay.[29],[30] The formation of tetrazolium salt was used as a measure of chemosensitivity and growth. (Details of this assay is described in the Supporting Information.) page 19: et al, 1993). The test samples were prepared to a 10 mmol/L stock solution in 100% DMSO. Samples were tested as a suspension if not completely dissolved. Further dilutions to the desired starting concentration were freshly prepared in growth media on each occasion of the experiment. The standard antimalarial drugs chloroquine (CQ) and artesunate (Arts) were used as the reference drug in all experiments. A full dose-response was performed for all compounds […] value). Test samples were tested at a starting concentration of 6mmol/L, which was then serially diluted 2-fold in growth medium to generate the tested concentration range. The same dilution technique was used for all samples. CQ and Arts were tested from a starting concentration of 1μg/mL. The highest concentration of solvent to which the parasites were exposed was <0.1% and has no measurable effect on the parasite viability (data not shown). The assay plate was incubated at 37 °C for 72h in a sealed gas chamber under 3% O2 and 4% CO2 with the balance being N2. After 72h, the wells in the assay plate were gently resuspended, and 15μL from each well was transferred to a duplicate plate containing 100μL of Malstat reagent and 25μL of nitroblue tetrazolium solution in each well. Plates were left to develop for 20 minutes in the dark and then absorbance of each well was quantified using a spectrophotometer at 620nm wavelength. The remaining population of parasites at each concentration of the test compound was determined by comparing the absorbance of each well to the absorbance of a well containing the drug-free control. Survival was plotted against concentration and the IC50 values were obtained using a non-linear dose-response curve fitting analysis via the Dotmatics software platform.2 In vitro Cytotoxicity Assay In vitro cytotoxicity was performed on the Chinese Hamster Ovarian cell line by measuring […] diphenyltetrazolium bromide (MTT) assay.3,4 The formation of tetrazolium salt was used as a measure of chemosensitivity and growth. 2 mg/mL stock solutions of the test compounds were prepared in DMSO and stored at -20 °C until required. The stock solution was subsequently diluted with the assay medium to make up an initial concentration of 100 μg/mL. The initial 100 μg/mL solution is serially diluted 10- S19 page 20: fold to attain six assay concentrations of 100-0.001 μg/mL. […] was used as the reference compound in this assay. The highest concentration of DMSO, which was used as the negative control, had no measurable effect on cell viability. After 44 hours of exposure of the cells to the test compounds, a solution of MTT was added. This was followed by an additional 4 hours of incubation at 37 °C. The assay plates were centrifuged, medium removed, and DMSO was added to the crystals. The amount of formazan was ascertained by measuring the absorbance at 540 nm. GraphPad Prism software was then used to generate IC50 values through a non-linear dose-response curve analysis. β-Hematin Inhibition Assay 20 mM stock solutions of controls and test compounds were made in DMSO. A solution […] was added to every well in columns 1-11 of a 96-well plate. 140 μL of water and 40 μL of 305.5 μM NP-40 were added to column 12 to mediate the formation of beta-hematin. 20 μL of test compounds (20 mM) were added to column 12 and 100 μL of this solution serially diluted to column 2, leaving column 1 blank (0 μM of test compound). 178.8 μL aliquot of hematin stock was suspended in 20 ml of a 1 M acetate buffer at pH 4.9. 100 μL of this hematin suspension was then added into each well, and the plates were incubated for ±5 hrs at 37°C. […]

[4] = test system: Chinese hamster ovarian (CHO) cell line; assay: In vitro cytotoxicity MTT assay; assay type: cell-based; details: CHO vs PfNF54
Method: as §10

β-hematin = assay: β-Hematin inhibition assay (BHIA), cell-free NP-40 mediated; assay type: biochemical; details: mean of n = 3
Method: page 20: fold to attain six assay concentrations of 100-0.001 μg/mL. […] was used as the reference compound in this assay. The highest concentration of DMSO, which was used as the negative control, had no measurable effect on cell viability. After 44 hours of exposure of the cells to the test compounds, a solution of MTT was added. This was followed by an additional 4 hours of incubation at 37 °C. The assay plates were centrifuged, medium removed, and DMSO was added to the crystals. The amount of formazan was ascertained by measuring the absorbance at 540 nm. GraphPad Prism software was then used to generate IC50 values through a non-linear dose-response curve analysis. β-Hematin Inhibition Assay 20 mM stock solutions of controls and test compounds were made in DMSO. A solution […] was added to every well in columns 1-11 of a 96-well plate. 140 μL of water and 40 μL of 305.5 μM NP-40 were added to column 12 to mediate the formation of beta-hematin. 20 μL of test compounds (20 mM) were added to column 12 and 100 μL of this solution serially diluted to column 2, leaving column 1 blank (0 μM of test compound). 178.8 μL aliquot of hematin stock was suspended in 20 ml of a 1 M acetate buffer at pH 4.9. 100 μL of this hematin […] pH 7.4 and 50% pyridine) and 60 μL of acetone were added to all wells. The absorbances of plate wells were recorded at 405 nm on a SpectraMax plate reader. Sigmoidal dose-response curves with variable slopes were fitted to the absorbance data using GraphPad Prism to obtain the IC50 values for each compound. In vitro Microsomal Stability Assay The in vitro microsomal stability assay was performed in duplicate in a 96-well micro titre […] individually in human (pool of 50, mixed gender), rat (pool of 711, male Sprague Dawley) and mouse (pool of 1634, male CD1) liver microsomes (final protein concentration of 0.4 mg/mL; Xenotech, Kansas, USA), suspended in 0.1M phosphate buffer (pH 7.4). Incubations were S20

Solubility = assay type: physicochemical; details: pH 6.5, aqueous buffer
Text: Table 1 In Vitro Antiplasmodium Activity, Cytotoxicity, BHIA, and Solubility | column: Solubility pH 6.5, μM

Row | SMILES | IC50 [1] [µM] | IC50 [2] [µM] | IC50 at 44 h [3] [µM] | SI (selectivity index) = IC50 CHO/IC50 PfNF54 [4] | IC50 (β-hematin) [µM] | solubility (Solubility) [µM]
1 | CCN(CCNc1cc2[nH]c(C3CCOC3)nc2cn1)Cc1ccc(Cl)cc1O (centres unmarked) [Compound 2, 5-Chloro-2-((ethyl(2-((2-(tetrahydrofuran-3-yl)-1H-imidazo[4,5-c]pyridin-6-yl)amino)ethyl)amino)methyl)phenol] | 1.67 | 1.61 | > 50 | >29.94 | 225 | 125 (≈ 52 µg/mL)
2 | CCN(CCNc1cc2[nH]c(C3CCOCC3)nc2cn1)Cc1ccc(Cl)cc1O [Compound 3, 5-Chloro-2-((ethyl(2-((2-(tetrahydro-2H-pyran-4-yl)-1H-imidazo[4,5-c]pyridin-6-yl)amino)ethyl)amino)methyl)phenol] | 2.37 | 4.19 | > 50 | >21.09 | 722 | 120 (≈ 51.6 µg/mL)
3 | CCN(CCNc1cc2[nH]c(C)nc2cn1)Cc1ccc(Cl)cc1O [Compound 4, 5-Chloro-2-((ethyl(2-((2-methyl-1H-imidazo[4,5-c]pyridin-6-yl)amino)ethyl)amino)methyl)phenol] | 2.53 | 4.11 | > 50 | >19.76 | 257 | 135 (≈ 48.6 µg/mL)
4 | CCN(CCNc1cc2[nH]c(C3(C(F)(F)F)CC3)nc2cn1)Cc1ccc(Cl)cc1O [Compound 7, 5-Chloro-2-((ethyl(2-((2-(1-(trifluoromethyl)cyclopropyl)-1H-imidazo[4,5-c]pyridin-6-yl)amino)ethyl)amino)methyl)phenol] | 1.67 | 6 | > 50 | >29.94 | 275 | 175 (≈ 79.4 µg/mL)
5 | CCN(CCNc1cc2[nH]c(CC3CC3)nc2cn1)Cc1ccc(Cl)cc1O [Compound 8, 5-Chloro-2-(((2-((2-(cyclopropylmethyl)-1H-imidazo[4,5-c]pyridin-6-yl)amino)ethyl)(ethyl)amino)methyl)phenol] | 0.56 | 6 | > 50 | >89.29 | 444 | 185 (≈ 74 µg/mL)
6 | CCN(CCNc1cc2[nH]c(C3CCC3)nc2cn1)Cc1ccc(Cl)cc1O [Compound 9, 5-Chloro-2-(((2-((2-cyclobutyl-1H-imidazo[4,5-c]pyridin-6-yl)amino)ethyl)(ethyl)amino)methyl)phenol] | 0.67 | 6 | > 50 | >74.63 | 128 | 170 (≈ 68 µg/mL)
7 | CCN(CCNc1cc2[nH]c(C3CC(F)(F)C3)nc2cn1)Cc1ccc(Cl)cc1O [Compound 10, 5-Chloro-2-(((2-((2-(3,3-difluorocyclobutyl)-1H-imidazo[4,5-c]pyridin-6-yl)amino)ethyl)(ethyl)amino)methyl)phenol] | 0.86 | 5.27 | > 50 | >58.14 | 76 | 175 (≈ 76.3 µg/mL)
8 | CCN(CCNc1cc2[nH]c(C3CCCCC3)nc2cn1)Cc1ccc(Cl)cc1O [Compound 11, 5-Chloro-2-(((2-((2-cyclohexyl-1H-imidazo[4,5-c]pyridin-6-yl)amino)ethyl)(ethyl)amino)methyl)phenol] | 0.69 | 2.12 | > 50 | >72.46 | 80 | 140 (≈ 59.9 µg/mL)
9 | CCN(CCNc1cc2[nH]c(C3CCC(F)(F)CC3)nc2cn1)Cc1ccc(Cl)cc1O [Compound 12, 5-Chloro-2-(((2-((2-(4,4-difluorocyclohexyl)-1H-imidazo[4,5-c]pyridin-6-yl)amino)ethyl)(ethyl)amino)methyl)phenol] | 0.93 | 3.68 | > 50 |  | 31 | < 5
10 | CCN(CCNc1cc2[nH]c(C3CCCN3C)nc2cn1)Cc1ccc(Cl)cc1O (centres unmarked) [Compound 13, 5-Chloro-2-((ethyl(2-((2-(1-methylpyrrolidin-2-yl)-1H-imidazo[4,5-c]pyridin-6-yl)amino)ethyl)amino)methyl)phenol] | 1.03 | 3.9 | > 50 | >48.54 | 285 | 175 (≈ 75.1 µg/mL)
